Test results taken from BindingDB's records for doi:10.1021/acschembio.6b00709 (Technical University of Munich, 2016).

Assays:
[1] = target: T1, Ephrin type-A receptor 2 [596-900] (Homo sapiens, UniProt P29317); assay: Kinobeads Competition Assay
T1 construct: 596-900
T1 sequence (P29317 whole entry): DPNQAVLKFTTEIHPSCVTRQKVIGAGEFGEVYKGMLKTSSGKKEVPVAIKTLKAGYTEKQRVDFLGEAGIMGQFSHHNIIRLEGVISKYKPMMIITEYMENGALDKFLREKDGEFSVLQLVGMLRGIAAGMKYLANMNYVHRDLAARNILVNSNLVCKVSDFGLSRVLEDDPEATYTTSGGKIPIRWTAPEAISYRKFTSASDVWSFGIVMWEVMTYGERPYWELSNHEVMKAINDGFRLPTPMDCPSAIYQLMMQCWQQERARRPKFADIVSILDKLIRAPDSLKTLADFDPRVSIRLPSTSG

[2] = target: T1, Ephrin type-A receptor 2 [596-900]; assay: HotSpot Kinase Activity Assay
Excerpt: Refer to Reaction Biology Corps.

SMILES: CN1CCN(CCOc2cc(OC3CCOCC3)c3c(Nc4c(Cl)ccc5c4OCO5)ncnc3c2)CC1
- Kd [1]: 338 nM

SMILES: CNC(=O)c1cc(Oc2ccc(NC(=O)Nc3ccc(Cl)c(C(F)(F)F)c3)c(F)c2)ccn1
- Kd [1]: 869 nM

SMILES: CC(C)c1cc(CNc2nc(Nc3cc(C4CC4)[nH]n3)cc(N3CCN(C)CC3)n2)on1 [4-N-(5-cyclopropyl-1H-pyrazol-3-yl)-6-(4-methylpiperazin-1-yl)-2-N-[(3-propan-2-yl-1,2-oxazol-5-yl)methyl]pyrimidine-2,4-diamine]
- Kd [1]: 19 nM
- IC50 [2]: 4 nM

SMILES: Cc1ccc(NC(=O)c2ccc(CN3CC[C@H](N(C)C)C3)c(C(F)(F)F)c2)cc1Nc1ncc(-c2cncnc2)cn1 [4-[[(3S)-3-(dimethylamino)pyrrolidin-1-yl]methyl]-N-[4-methyl-3-[(5-pyrimidin-5-ylpyrimidin-2-yl)amino]phenyl]-3-(trifluoromethyl)benzamide]
- Kd [1]: 192 nM
- IC50 [2]: 17 nM

SMILES: CCS(=O)(=O)c1cccc(-c2cc(C(=O)NC3CCN(C)CC3)c(C)c3[nH]c4ncc(C)cc4c23)c1 [5-(3-ethylsulfonylphenyl)-3,8-dimethyl-N-(1-methylpiperidin-4-yl)-9H-pyrido[2,3-b]indole-7-carboxamide]
- Kd [1]: 198 nM
- IC50 [2]: 4.8 nM

SMILES: COc1cc2c(Nc3ccc(Cl)c(Cl)c3F)ncnc2cc1OCC1C[C@@H]2CN(C)C[C@@H]2C1 (stereo partly drawn) [7-[[(3aS,6aR)-2-methyl-3,3a,4,5,6,6a-hexahydro-1H-cyclopenta[c]pyrrol-5-yl]methoxy]-N-(3,4-dichloro-2-fluorophenyl)-6-methoxyquinazolin-4-amine]
- Kd [1]: 458 nM

SMILES: COc1cc(N2CCC(N3CCN(C)CC3)CC2)ccc1Nc1ncnc(Nc2ccccc2S(=O)(=O)C(C)C)n1 [ASP-3026]
- Kd [1]: 640 nM

SMILES: COc1cc(Nc2ncc3c(n2)-c2ccc(Cl)cc2C(c2c(F)cccc2OC)=NC3)ccc1C(=O)O [Alisertib]
- Kd [1]: 187 nM
- IC50 [2]: 48 nM

SMILES: COc1cccc(Nc2ncnn3ccc(CN4CC[C@@H](N)[C@H](O)C4)c23)c1 [BMS-690514]
- Kd [1]: 961 nM

SMILES: C[C@@H](NC(=O)c1ncnc(N)c1Cl)c1ncc(C(=O)Nc2cc(C(F)(F)F)c(Cl)cn2)s1 [MLN-2480]
- Kd [1]: 484 nM

SMILES: CNC(=O)c1nn(C)c2c1C(C)(C)Cc1cnc(Nc3ccc(N4CCN(C)CC4)cc3)nc1-2 [Milciclib]
- Kd [1]: 672 nM

SMILES: COc1cc2nccc(Oc3ccc(NC(=O)Nc4cc(C)on4)c(Cl)c3)c2cc1OC [Tivozanib]
- Kd [1]: 259 nM
